Experimental findings from ChEMBL document CHEMBL2346622, “Novel tacrine-related drugs as potential candidates for the treatment of Alzheimer's disease” (Bioorg Med Chem Lett, 2013) are described below.

One may read the pIC50 as −log10 of the IC50, conventionally taken in molar units. A low value points to a high IC50.

pIC50: −log10 of the molar value.

Assay [1] concerns the target T1, Acetylcholinesterase (Rattus norvegicus) (UniProt P37136).
T1 sequence (whole entry): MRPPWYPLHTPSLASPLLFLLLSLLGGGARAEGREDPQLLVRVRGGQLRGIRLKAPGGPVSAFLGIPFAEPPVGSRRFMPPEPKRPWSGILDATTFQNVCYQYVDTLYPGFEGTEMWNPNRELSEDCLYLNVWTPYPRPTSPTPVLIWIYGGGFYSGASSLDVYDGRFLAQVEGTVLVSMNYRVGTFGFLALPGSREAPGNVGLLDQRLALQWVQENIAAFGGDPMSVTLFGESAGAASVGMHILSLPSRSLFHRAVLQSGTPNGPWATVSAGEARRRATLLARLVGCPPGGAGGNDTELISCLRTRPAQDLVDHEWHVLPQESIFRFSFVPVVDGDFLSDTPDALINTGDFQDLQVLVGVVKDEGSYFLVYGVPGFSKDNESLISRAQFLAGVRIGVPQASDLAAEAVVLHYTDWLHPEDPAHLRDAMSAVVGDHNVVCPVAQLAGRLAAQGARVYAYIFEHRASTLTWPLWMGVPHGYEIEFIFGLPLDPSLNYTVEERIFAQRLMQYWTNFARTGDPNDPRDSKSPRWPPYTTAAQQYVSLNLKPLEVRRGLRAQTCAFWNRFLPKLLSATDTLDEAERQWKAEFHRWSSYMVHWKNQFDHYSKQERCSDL
Kind of assay: (§1) Inhibition of rat brain acetylcholinesterase.

A further assay has as its target T2, Acetylcholinesterase (Rattus norvegicus, UniProt P37136).
T2 sequence (P37136 whole entry): T1 sequence (whole entry)
Described as §1.

`c1ccc2c(NCCCCCCCN3CCCCC3)c3c(nc2c1)CCCC3` registered an Imax in assay [1] of 95%. Further, the pIC50 against Acetylcholinesterase is 7.69.
